Patent publication US10738028B2, “Spiro three-membered ring, spiro five-membered ring peptide deformylase inhibitor and use thereof in antibacteria and anti-tumor” (priority 2016, dated 2020)

Assays:
Assay type in all cases: cell-based
[1] = system: HCT-116 colorectal cancer cell line; test: CCK-8 proliferation inhibition; conditions: Homo sapiens, HCT-116, 72 h, concentration of 30 μM; 72 hours; CCK-8; read-out: HCT116 inhibition rate/%
How it was run: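 Cells seeded at 2000 cells/well, cultured overnight at 37 °C, 5% CO2, then exposed to compound (DMSO; control 1‰ DMSO) for 72 h in McCoy's 5A with 10% newborn bovine serum. Viability read with 1:10 diluted CCK-8.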

[2] = system: methicillin-resistant Staphylococcus aureus (MRSA); test: MIC, two-fold agar dilution (CLSI), clinical isolates; conditions: for Anti-bacterial activity (MIC), strain MRSA 15-1: clinical isolate MRSA 15-1; for Anti-bacterial activity (MIC), strain MRSA 15-2: clinical isolate MRSA 15-2; for Anti-bacterial activity (MIC), strain MRSA 15-3: clinical isolate MRSA 15-3; for Anti-bacterial activity (MIC), strain MRSA 15-4: clinical isolate MRSA 15-4
How it was run: (§1)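 Following the American Clinical and Laboratory Standards Institute procedure, agar two-fold dilution served to determine minimum inhibitory concentrations.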

[3] = system: methicillin-sensitive Staphylococcus epidermidis (MSSE); test: as above; conditions: for Anti-bacterial activity (MIC), strain MSSE 15-3: clinical isolate MSSE 15-3; for Anti-bacterial activity (MIC), strain MSSE 15-4: clinical isolate MSSE 15-4; for Anti-bacterial activity (MIC), strain MSSE 15-5: clinical isolate MSSE 15-5; for Anti-bacterial activity (MIC), strain MSSE 15-6: clinical isolate MSSE 15-6
How it was run: as §1

[4] = system: Moraxella catarrhalis (BCA); test: as above
How it was run: as §1

[5] = system: methicillin-resistant Staphylococcus epidermidis (MRSE); test: as above; conditions: for Anti-bacterial activity (MIC), strain MRSE 15-1: clinical isolate MRSE 15-1; for Anti-bacterial activity (MIC), strain MRSE 15-2: clinical isolate MRSE 15-2; for Anti-bacterial activity (MIC), strain MRSE 15-3: clinical isolate MRSE 15-3; for Anti-bacterial activity (MIC), strain MRSE 15-7: clinical isolate MRSE 15-7
How it was run: as §1

[6] = system: Escherichia coli (including ESBLs, non-ESBLs); test: as above; conditions: for Anti-bacterial activity (MIC), strain ECO+ 15-1: clinical isolate ECO+ 15-1; for Anti-bacterial activity (MIC), strain ECO+ 15-2: clinical isolate ECO+ 15-2; for Anti-bacterial activity (MIC), strain ECO+ 15-3: clinical isolate ECO+ 15-3; for Anti-bacterial activity (MIC), strain ECO+ 15-4: clinical isolate ECO+ 15-4; for Anti-bacterial activity (MIC), strain ECO− 15-1: clinical isolate ECO− 15-1; for Anti-bacterial activity (MIC), strain ECO− 15-2: clinical isolate ECO− 15-2; for Anti-bacterial activity (MIC), strain ECO− 15-3: clinical isolate ECO− 15-3; for Anti-bacterial activity (MIC), strain ECO− 15-4: clinical isolate ECO− 15-4
How it was run: as §1

[7] = system: Enterococcus faecalis (EFA); test: as above
How it was run: as §1

[8] = system: methicillin-sensitive Staphylococcus aureus (MSSA); test: as above; conditions: for Anti-bacterial activity (MIC), strain MSSA 15-3: clinical isolate MSSA 15-3; for Anti-bacterial activity (MIC), strain MSSA 15-4: clinical isolate MSSA 15-4; for Anti-bacterial activity (MIC), strain MSSA 15-5: clinical isolate MSSA 15-5; for Anti-bacterial activity (MIC), strain MSSA 15-6: clinical isolate MSSA 15-6
How it was run: as §1

[9] = system: Streptococcus pneoumoniae (SPN); test: as above
How it was run: as §1

[10] = system: Enterococcus faecium (EFM); test: as above
How it was run: as §1

O=C(C[C@@H](CC1CCCC1)C(=O)N1CC2(CC2)C[C@H]1C(=O)NC1CC1)NO [Example 68]
2 µg/mL: Anti-bacterial activity (MIC) ([4]; strain BCA 14-10) | Anti-bacterial activity (MIC) ([9]; strain SPN 16-2)
4 µg/mL: Anti-bacterial activity (MIC) ([4]; strain BCA 14-5) | Anti-bacterial activity (MIC) ([10]; strain EFM 15-5) | Anti-bacterial activity (MIC) ([10]; strain EFM 15-6)
1 µg/mL: Anti-bacterial activity (MIC) ([9]; strain SPN 16-4)
> 32 µg/mL: Anti-bacterial activity (MIC), strain MRSA 15-1 [2] | Anti-bacterial activity (MIC), strain MRSA 15-2 [2] | Anti-bacterial activity (MIC), strain MRSA 15-3 [2] | Anti-bacterial activity (MIC), strain MRSA 15-4 [2] | Anti-bacterial activity (MIC), strain MSSE 15-3 [3] | Anti-bacterial activity (MIC), strain MSSE 15-4 [3] | Anti-bacterial activity (MIC), strain MSSE 15-5 [3] | Anti-bacterial activity (MIC), strain MSSE 15-6 [3] | Anti-bacterial activity (MIC), strain MRSE 15-1 [5] | Anti-bacterial activity (MIC), strain MRSE 15-2 [5] | Anti-bacterial activity (MIC), strain MRSE 15-3 [5] | Anti-bacterial activity (MIC), strain MRSE 15-7 [5] | Anti-bacterial activity (MIC), strain ECO+ 15-1 [6] | Anti-bacterial activity (MIC), strain ECO+ 15-2 [6] | Anti-bacterial activity (MIC), strain ECO+ 15-3 [6] | Anti-bacterial activity (MIC), strain ECO+ 15-4 [6] | Anti-bacterial activity (MIC), strain ECO− 15-1 [6] | Anti-bacterial activity (MIC), strain ECO− 15-2 [6] | Anti-bacterial activity (MIC), strain ECO− 15-3 [6] | Anti-bacterial activity (MIC), strain ECO− 15-4 [6] | Anti-bacterial activity (MIC) ([7]; strain EFA 15-1) | Anti-bacterial activity (MIC) ([7]; strain EFA 15-2) | Anti-bacterial activity (MIC) ([7]; strain EFA 15-3) | Anti-bacterial activity (MIC) ([7]; strain EFA 15-4) | Anti-bacterial activity (MIC) ([7]; strain EFA 15-5) | Anti-bacterial activity (MIC) ([7]; strain EFA 15-6) | Anti-bacterial activity (MIC), strain MSSA 15-3 [8] | Anti-bacterial activity (MIC), strain MSSA 15-4 [8] | Anti-bacterial activity (MIC), strain MSSA 15-5 [8] | Anti-bacterial activity (MIC), strain MSSA 15-6 [8] | Anti-bacterial activity (MIC) ([10]; strain EFM 15-1) | Anti-bacterial activity (MIC) ([10]; strain EFM 15-2) | Anti-bacterial activity (MIC) ([10]; strain EFM 15-3)
32 µg/mL: Anti-bacterial activity (MIC) ([4]; strain BCA 14-1) | Anti-bacterial activity (MIC) ([4]; strain BCA 14-4) | Anti-bacterial activity (MIC) ([4]; strain BCA 14-6) | Anti-bacterial activity (MIC) ([4]; strain BCA 14-7) | Anti-bacterial activity (MIC) ([4]; strain BCA 14-8) | Anti-bacterial activity (MIC) ([7]; strain EFA 15-9) | Anti-bacterial activity (MIC) ([10]; strain EFM 15-4)
21%: inhibition at 30 µM [1]

O=C(C[C@@H](CC1CCCC1)C(=O)N1CC2(CC2)C[C@H]1C(=O)Nc1ncco1)NO [Example 69]
32 µg/mL: Anti-bacterial activity (MIC), strain ECO+ 15-1 [6] | Anti-bacterial activity (MIC), strain ECO+ 15-2 [6] | Anti-bacterial activity (MIC), strain ECO+ 15-3 [6] | Anti-bacterial activity (MIC), strain ECO− 15-1 [6] | Anti-bacterial activity (MIC), strain ECO− 15-2 [6] | Anti-bacterial activity (MIC), strain ECO− 15-3 [6] | Anti-bacterial activity (MIC), strain ECO− 15-4 [6]
4 µg/mL: Anti-bacterial activity (MIC) ([4]; strain BCA 14-10)
> 32 µg/mL: Anti-bacterial activity (MIC) ([4]; strain BCA 14-1) | Anti-bacterial activity (MIC) ([4]; strain BCA 14-4) | Anti-bacterial activity (MIC) ([4]; strain BCA 14-6) | Anti-bacterial activity (MIC) ([4]; strain BCA 14-7) | Anti-bacterial activity (MIC) ([4]; strain BCA 14-8) | Anti-bacterial activity (MIC), strain ECO+ 15-4 [6] | Anti-bacterial activity (MIC) ([7]; strain EFA 15-1) | Anti-bacterial activity (MIC) ([7]; strain EFA 15-2) | Anti-bacterial activity (MIC) ([7]; strain EFA 15-3) | Anti-bacterial activity (MIC) ([7]; strain EFA 15-4) | Anti-bacterial activity (MIC) ([7]; strain EFA 15-5) | Anti-bacterial activity (MIC) ([7]; strain EFA 15-6) | Anti-bacterial activity (MIC) ([7]; strain EFA 15-9) | Anti-bacterial activity (MIC), strain MSSA 15-6 [8] | Anti-bacterial activity (MIC) ([10]; strain EFM 15-1) | Anti-bacterial activity (MIC) ([10]; strain EFM 15-2) | Anti-bacterial activity (MIC) ([10]; strain EFM 15-3) | Anti-bacterial activity (MIC) ([10]; strain EFM 15-4)
2 µg/mL: Anti-bacterial activity (MIC), strain MRSA 15-1 [2] | Anti-bacterial activity (MIC), strain MRSA 15-3 [2] | Anti-bacterial activity (MIC), strain MSSE 15-6 [3] | Anti-bacterial activity (MIC), strain MSSA 15-4 [8] | Anti-bacterial activity (MIC), strain MSSA 15-5 [8] | Anti-bacterial activity (MIC) ([9]; strain SPN 16-2)
8 µg/mL: Anti-bacterial activity (MIC), strain MRSA 15-2 [2] | Anti-bacterial activity (MIC), strain MRSA 15-4 [2] | Anti-bacterial activity (MIC), strain MSSE 15-4 [3] | Anti-bacterial activity (MIC), strain MSSE 15-5 [3] | Anti-bacterial activity (MIC) ([4]; strain BCA 14-5) | Anti-bacterial activity (MIC), strain MRSE 15-1 [5] | Anti-bacterial activity (MIC), strain MRSE 15-2 [5] | Anti-bacterial activity (MIC), strain MRSE 15-3 [5] | Anti-bacterial activity (MIC), strain MRSE 15-7 [5] | Anti-bacterial activity (MIC), strain MSSA 15-3 [8] | Anti-bacterial activity (MIC) ([10]; strain EFM 15-5) | Anti-bacterial activity (MIC) ([10]; strain EFM 15-6)
1 µg/mL: Anti-bacterial activity (MIC), strain MSSE 15-3 [3] | Anti-bacterial activity (MIC) ([9]; strain SPN 16-4)
15%: inhibition at 30 µM [1]
